Active and inactive are the calls of the source. The rule behind the calls is not given here.
Assays:
[1] = molecular target: Acetylcholinesterase (Electrophorus electricus) (UniProt O42275); assay: Inhibition of electric eel AChE at 20 uM using acetylthiocholine iodide as substrate incubated for 30 min by DTNB reagent based Ellman's method relative to control
[2] = molecular target: T1, Amine oxidase [flavin-containing] A (Homo sapiens, UniProt P21397); assay: Inhibition of human MAO-A at 10 uM using p-tyramine as substrate incubated for 30 mins by Amplex Red reagent based fluorescence analysis relative to control; conditions: 0.5 h
T1 sequence (P21397 whole entry): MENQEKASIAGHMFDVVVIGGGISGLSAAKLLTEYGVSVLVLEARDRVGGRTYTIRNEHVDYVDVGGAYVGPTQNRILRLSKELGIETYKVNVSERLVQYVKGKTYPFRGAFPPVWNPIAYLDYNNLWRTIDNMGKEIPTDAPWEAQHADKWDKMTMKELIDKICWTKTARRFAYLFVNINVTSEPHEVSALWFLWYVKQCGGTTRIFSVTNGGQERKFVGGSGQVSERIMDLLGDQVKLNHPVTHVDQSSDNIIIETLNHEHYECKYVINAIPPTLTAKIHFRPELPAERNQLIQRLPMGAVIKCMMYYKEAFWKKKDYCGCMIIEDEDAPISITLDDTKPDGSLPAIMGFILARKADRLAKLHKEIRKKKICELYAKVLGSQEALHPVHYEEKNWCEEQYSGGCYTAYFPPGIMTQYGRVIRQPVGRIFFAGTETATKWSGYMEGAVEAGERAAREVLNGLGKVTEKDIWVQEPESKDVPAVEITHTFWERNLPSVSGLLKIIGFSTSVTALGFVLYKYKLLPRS

[3] = molecular target: Cholinesterase (Equus caballus) (UniProt P81908); assay: Inhibition of equine BuChE at 25 uM using butyryl-thiocholine iodide as substrate incubated for 30 min by DTNB reagent based Ellman's method
[4] = molecular target: T2, Amine oxidase [flavin-containing] B (Homo sapiens, UniProt P27338); assay: Inhibition of human MAO-B at 10 uM using p-tyramine as substrate incubated for 30 mins by Amplex Red reagent based fluorescence analysis relative to control; conditions: 0.5 h
T2 sequence (P27338 whole entry): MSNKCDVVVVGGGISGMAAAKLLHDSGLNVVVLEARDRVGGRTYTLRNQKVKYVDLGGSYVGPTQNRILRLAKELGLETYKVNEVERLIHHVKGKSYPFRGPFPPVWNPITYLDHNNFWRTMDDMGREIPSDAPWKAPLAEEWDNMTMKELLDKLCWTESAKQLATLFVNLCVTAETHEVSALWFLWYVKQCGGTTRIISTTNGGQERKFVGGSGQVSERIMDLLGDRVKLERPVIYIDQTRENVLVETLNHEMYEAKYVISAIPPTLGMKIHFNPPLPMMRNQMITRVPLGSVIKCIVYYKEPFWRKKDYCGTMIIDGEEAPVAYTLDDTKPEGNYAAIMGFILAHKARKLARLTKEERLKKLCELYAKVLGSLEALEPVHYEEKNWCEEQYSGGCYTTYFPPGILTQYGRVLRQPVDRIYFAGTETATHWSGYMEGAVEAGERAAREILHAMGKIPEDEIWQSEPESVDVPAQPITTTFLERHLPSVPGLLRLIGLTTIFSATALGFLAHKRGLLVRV

[5] = molecular target: Cholinesterase (Equus caballus) (UniProt P81908); assay: Inhibition of equine BuChE at 20 uM using butyryl-thiocholine iodide as substrate incubated for 30 min by DTNB reagent based Ellman's method relative to control
[6] = molecular target: T2, Amine oxidase [flavin-containing] B; assay: Inhibition of human MAO-B using p-tyramine as substrate preincubated for 15 mins followed by substrate addition and measured after 30 mins by Amplex Red reagent based fluorescence analysis
[7] = Inhibition of MAO (unknown origin); set-up: species or system Homo sapiens
[8] = molecular target: Acetylcholinesterase (Electrophorus electricus) (UniProt O42275); assay: Non-competitive inhibition of electric eel AChE assessed as increase in Km using acetylthiocholine iodide as substrate incubated for 30 min by Ellman's method based Lineweaver-Burk plot analysis
[9] = molecular target: Acetylcholinesterase (Electrophorus electricus) (UniProt O42275); assay: (§1) Reversible inhibition of electric eel AChE assessed as residual activity at 10 time IC50 concentration using acetylthiocholine iodide as substrate incubated for 30 min followed by 100-fold dilution with substrate and buffer solutions by DTNB reagent based Ellman's method (reference value: 100 +/- 0.37%)
[10] = molecular target: T2, Amine oxidase [flavin-containing] B; assay: Reversible inhibition of human MAO-B assessed as residual activity at 10 time IC50 concentration using p-tyramine as substrate incubated for 30 mins followed by 100-fold dilution with substrate and buffer solutions by Amplex Red reagent based fluorescence analysis (reference value: 100 +/- 0.37%); conditions: 0.5 h
[11] = molecular target: Amyloid-beta precursor protein (Homo sapiens) (UniProt P05067); assay: Inhibition of amyloid beta (1 to 42) (unknown origin) aggregation at 10 uM incubated for 48 hrs by ThT assay relative to control
[12] = molecular target: T2, Amine oxidase [flavin-containing] B; assay: Inhibition of human MAO-B using p-tyramine as substrate incubated for 30 mins by Amplex Red reagent based fluorescence analysis
[13] = molecular target: Acetylcholinesterase (Electrophorus electricus) (UniProt O42275); assay: Inhibition of electric eel AChE assessed as residual activity at 100 time IC50 concentration using acetylthiocholine iodide as substrate incubated for 30 min by DTNB reagent based Ellman's method (reference value: 100 +/- 0.37%)
[14] = Cytotoxicity against human SH-SY5Y cells assessed as cell viability at 25 uM by MTT assay (reference value: 100 +/- 0.22); format: toxicity, cell-based; conditions: read-out: Activity
[15] = molecular target: Acetylcholinesterase (Electrophorus electricus) (UniProt O42275); assay: Inhibition of electric eel AChE assessed as residual activity at 10 time IC50 concentration using acetylthiocholine iodide as substrate incubated for 30 min by DTNB reagent based Ellman's method (reference value: 100 +/- 0.37%)
[16] = molecular target: Amyloid-beta precursor protein (Homo sapiens) (UniProt P05067); assay: Inhibition of amyloid beta (1 to 42) (unknown origin) aggregation at 10 uM incubated for 24 hrs by ThT assay relative to control
[17] = molecular target: T2, Amine oxidase [flavin-containing] B; assay: Reversible inhibition of human MAO-B assessed as residual activity at 100 time IC50 concentration using p-tyramine as substrate incubated for 30 mins followed by 100-fold dilution with substrate and buffer solutions by Amplex Red reagent based fluorescence analysis (reference value: 100 +/- 0.37%); conditions: 0.5 h
[18] = molecular target: Acetylcholinesterase (Electrophorus electricus, UniProt O42275); assay: Inhibition of electric eel AChE using acetylthiocholine iodide as substrate incubated for 30 min by DTNB reagent based Ellman's method
[19] = molecular target: T2, Amine oxidase [flavin-containing] B; assay: Inhibition of human MAO-B assessed as residual activity at 100 time IC50 concentration using p-tyramine as substrate incubated for 30 mins by Amplex Red reagent based fluorescence analysis (reference value: 100 +/- 0.37%); conditions: 0.5 h
[20] = molecular target: Acetylcholinesterase (Electrophorus electricus) (UniProt O42275); assay: Non-competitive inhibition of electric eel AChE assessed as decrease in Vmax using acetylthiocholine iodide as substrate incubated for 30 min by Ellman's method based Lineweaver-Burk plot analysis
[21] = molecular target: Acetylcholinesterase (Electrophorus electricus) (UniProt O42275); assay: as §1, with “at 100” for “at 10”
[22] = Cytotoxicity against human SH-SY5Y cells assessed as cell viability at 1 uM by MTT assay (reference value: 100 +/- 0.22); format: toxicity, cell-based; conditions: read-out: Activity
[23] = molecular target: T2, Amine oxidase [flavin-containing] B; assay: Inhibition of human MAO-B assessed as residual activity at 10 time IC50 concentration using p-tyramine as substrate incubated for 30 mins by Amplex Red reagent based fluorescence analysis (reference value: 100 +/- 0.37%); conditions: 0.5 h
[24] = Cytotoxicity against human SH-SY5Y cells assessed as cell viability at 5 uM by MTT assay (reference value: 100 +/- 0.22); format: toxicity, cell-based; conditions: read-out: Activity
[25] = molecular target: T1, Amine oxidase [flavin-containing] A; assay: Inhibition of human MAO-A at 25 uM using p-tyramine as substrate incubated for 30 mins by Amplex Red reagent based fluorescence analysis; conditions: 0.5 h
[26] = molecular target: Acetylcholinesterase (Homo sapiens, UniProt P22303); assay: Inhibition of AChE (unknown origin)
[27] = molecular target: T2, Amine oxidase [flavin-containing] B; assay: Inhibition of MAO-B (unknown origin)

Sequence of Acetylcholinesterase (Electrophorus electricus) (O42275 24-633 limits assumed): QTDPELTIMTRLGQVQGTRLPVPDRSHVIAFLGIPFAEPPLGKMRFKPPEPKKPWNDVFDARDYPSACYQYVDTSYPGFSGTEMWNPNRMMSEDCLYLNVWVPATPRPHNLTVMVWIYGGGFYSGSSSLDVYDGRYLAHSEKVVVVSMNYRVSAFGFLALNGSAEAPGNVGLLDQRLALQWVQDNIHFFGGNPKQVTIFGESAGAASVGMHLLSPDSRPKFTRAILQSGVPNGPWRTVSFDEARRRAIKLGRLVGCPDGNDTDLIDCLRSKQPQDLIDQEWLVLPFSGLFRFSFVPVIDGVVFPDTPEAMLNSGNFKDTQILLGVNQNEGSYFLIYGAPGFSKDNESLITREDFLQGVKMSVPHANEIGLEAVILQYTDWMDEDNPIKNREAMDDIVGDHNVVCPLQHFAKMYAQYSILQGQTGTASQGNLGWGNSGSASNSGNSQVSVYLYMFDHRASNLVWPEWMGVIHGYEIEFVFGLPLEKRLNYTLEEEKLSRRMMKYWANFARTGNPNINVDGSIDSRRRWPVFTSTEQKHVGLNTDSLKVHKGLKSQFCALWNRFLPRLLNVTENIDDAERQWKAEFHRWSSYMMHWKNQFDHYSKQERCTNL
Sequence of Amyloid-beta precursor protein (Homo sapiens) (P05067 whole entry): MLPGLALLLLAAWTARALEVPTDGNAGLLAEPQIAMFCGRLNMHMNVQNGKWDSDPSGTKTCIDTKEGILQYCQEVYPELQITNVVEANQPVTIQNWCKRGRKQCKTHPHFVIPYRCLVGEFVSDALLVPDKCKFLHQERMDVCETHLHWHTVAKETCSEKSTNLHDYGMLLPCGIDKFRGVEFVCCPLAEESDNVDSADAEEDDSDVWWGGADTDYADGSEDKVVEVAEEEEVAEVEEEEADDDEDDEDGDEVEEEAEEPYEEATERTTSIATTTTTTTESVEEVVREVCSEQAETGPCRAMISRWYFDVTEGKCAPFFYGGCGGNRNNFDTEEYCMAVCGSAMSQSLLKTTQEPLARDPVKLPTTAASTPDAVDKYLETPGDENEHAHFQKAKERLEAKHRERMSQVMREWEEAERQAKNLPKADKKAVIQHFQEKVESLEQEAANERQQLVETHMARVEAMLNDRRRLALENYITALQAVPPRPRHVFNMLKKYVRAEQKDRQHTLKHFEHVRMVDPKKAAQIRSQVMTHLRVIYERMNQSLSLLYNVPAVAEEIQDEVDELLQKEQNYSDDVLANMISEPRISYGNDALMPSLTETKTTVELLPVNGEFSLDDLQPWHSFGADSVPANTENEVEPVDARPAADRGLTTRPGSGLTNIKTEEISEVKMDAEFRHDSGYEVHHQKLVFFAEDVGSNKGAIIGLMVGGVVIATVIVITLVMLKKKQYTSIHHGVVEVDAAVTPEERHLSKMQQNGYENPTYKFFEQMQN
Sequence of Acetylcholinesterase (Homo sapiens, UniProt P22303) (P22303 whole entry): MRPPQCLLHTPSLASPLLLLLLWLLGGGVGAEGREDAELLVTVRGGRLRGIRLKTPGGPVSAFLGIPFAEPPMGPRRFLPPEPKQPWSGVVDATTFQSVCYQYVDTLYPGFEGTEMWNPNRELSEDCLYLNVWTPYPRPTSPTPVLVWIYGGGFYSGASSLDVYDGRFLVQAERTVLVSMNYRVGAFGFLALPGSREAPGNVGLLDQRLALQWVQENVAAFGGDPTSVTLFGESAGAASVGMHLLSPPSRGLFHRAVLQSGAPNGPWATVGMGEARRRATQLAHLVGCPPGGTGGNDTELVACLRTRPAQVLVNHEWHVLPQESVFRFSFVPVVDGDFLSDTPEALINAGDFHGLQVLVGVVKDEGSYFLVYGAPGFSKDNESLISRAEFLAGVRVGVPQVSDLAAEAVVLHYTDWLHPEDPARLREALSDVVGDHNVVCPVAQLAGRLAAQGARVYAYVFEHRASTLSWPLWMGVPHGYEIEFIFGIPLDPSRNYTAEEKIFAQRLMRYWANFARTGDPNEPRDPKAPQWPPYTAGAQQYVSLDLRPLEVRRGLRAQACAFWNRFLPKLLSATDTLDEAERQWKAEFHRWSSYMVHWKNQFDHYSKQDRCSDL
Sequence of Acetylcholinesterase (Electrophorus electricus, UniProt O42275) (O42275 whole entry): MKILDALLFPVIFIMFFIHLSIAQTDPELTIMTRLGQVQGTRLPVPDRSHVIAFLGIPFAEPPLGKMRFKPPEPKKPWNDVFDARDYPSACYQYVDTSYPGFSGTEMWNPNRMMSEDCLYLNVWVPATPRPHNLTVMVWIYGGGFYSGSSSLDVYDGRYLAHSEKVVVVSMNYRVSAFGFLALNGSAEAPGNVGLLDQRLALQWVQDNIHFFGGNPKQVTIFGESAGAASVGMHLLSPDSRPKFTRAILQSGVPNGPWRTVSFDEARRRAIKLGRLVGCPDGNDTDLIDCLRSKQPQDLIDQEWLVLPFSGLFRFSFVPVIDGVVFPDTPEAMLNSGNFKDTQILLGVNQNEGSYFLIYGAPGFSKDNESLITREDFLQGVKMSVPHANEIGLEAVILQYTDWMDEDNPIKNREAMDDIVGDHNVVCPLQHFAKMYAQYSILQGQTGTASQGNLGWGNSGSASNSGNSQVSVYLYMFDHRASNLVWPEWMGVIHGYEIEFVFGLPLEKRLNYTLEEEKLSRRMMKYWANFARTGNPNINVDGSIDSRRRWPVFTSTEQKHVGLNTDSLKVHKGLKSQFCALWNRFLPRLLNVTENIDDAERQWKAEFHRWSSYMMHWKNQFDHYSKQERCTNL
Sequence of Cholinesterase (Equus caballus) (P81908 whole entry): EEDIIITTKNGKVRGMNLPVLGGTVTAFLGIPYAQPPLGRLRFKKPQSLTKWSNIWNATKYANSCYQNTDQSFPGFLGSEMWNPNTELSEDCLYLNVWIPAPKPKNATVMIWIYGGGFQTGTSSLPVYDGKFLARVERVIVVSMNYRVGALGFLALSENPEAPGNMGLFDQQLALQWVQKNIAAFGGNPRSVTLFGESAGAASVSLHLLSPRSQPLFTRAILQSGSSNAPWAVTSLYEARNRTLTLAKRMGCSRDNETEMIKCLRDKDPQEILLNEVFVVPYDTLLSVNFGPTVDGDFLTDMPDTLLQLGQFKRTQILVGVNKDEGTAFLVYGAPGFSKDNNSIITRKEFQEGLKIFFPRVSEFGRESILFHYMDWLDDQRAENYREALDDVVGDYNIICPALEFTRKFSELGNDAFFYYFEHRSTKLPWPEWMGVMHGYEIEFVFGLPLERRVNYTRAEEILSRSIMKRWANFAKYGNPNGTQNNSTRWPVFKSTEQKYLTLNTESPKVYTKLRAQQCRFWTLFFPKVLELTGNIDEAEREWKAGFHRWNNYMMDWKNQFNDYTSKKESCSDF

C#CCOc1ccc(-c2cc(/C=C/c3ccccc3)nc(C)n2)cc1C
inhibition [1]: 67%
inhibition at 10 µM [2]: 0.96%
inhibition [3]: inactive
inhibition at 10 µM [4]: 0.27%

C#CCOc1ccc(-c2cc(/C(C)=C/c3ccccc3)nc(N)n2)cc1
inhibition [1]: 71.3%
inhibition at 10 µM [2]: 8.66%
inhibition [5]: 3.04%
inhibition at 10 µM [4]: 1.79%

C#CCOc1ccc(-c2cc(/C=C/c3ccccc3)nc(-c3ccccc3)n2)cc1
inhibition [1]: 70.2%
inhibition at 10 µM [2]: 20.9%
inhibition [5]: 3.6%
inhibition at 10 µM [4]: 7.18%

C#CCOc1ccccc1-c1cc(-c2ccc(Cl)cc2)nc(-c2ccccc2)n1
IC50 [6]: 0.48 µM

C#CCOc1ccc(-c2cc(/C=C/c3ccccc3)nc(N)n2)cc1
inhibition [1]: 68.5%
inhibition at 10 µM [2]: 8.61%
inhibition [5]: 2.12%
inhibition at 10 µM [4]: 9.28%

O=C1c2ccccc2-c2cnc(-c3ccccc3)nc21
IC50 [7]: 2.37 µM

C#CCOc1cccc(-c2cc(/C=C/c3ccccc3)ncn2)c1
inhibition [8]: Active
Activity [9]: 96.7%
inhibition [1]: 69.2%
Activity [10]: 34.91%
inhibition [11]: 33%
IC50 [12]: 4.93 µM
inhibition at 10 µM [2]: 13.9%
Activity [13]: 13.6%
viability at 25 µM [14]: 86.5%
Activity [15]: 5.18%
inhibition [16]: 29.3%
inhibition [5]: 6.43%
Activity [17]: 36.72%
IC50 [18]: 9.02 µM
Activity [19]: 3.4%
inhibition [20]: Active
Activity [21]: 47.9%
viability at 1 µM [22]: 91%
inhibition at 10 µM [4]: 76.4%
Activity [23]: 2.6%
viability at 5 µM [24]: 90.7%

C#CCOc1ccccc1-c1cc(/C=C/c2ccccc2)nc(-c2ccccc2)n1
inhibition [1]: 64.2%
inhibition at 10 µM [2]: 9.57%
inhibition [5]: 3.6%
inhibition at 10 µM [4]: 3.49%

C#CCOc1cccc(-c2cc(/C=C/c3ccccc3)nc(C)n2)c1
inhibition [1]: 61.6%
inhibition at 10 µM [2]: 15.5%
inhibition [5]: 3.17%
inhibition at 10 µM [4]: 2.96%

C#CCOc1ccc(-c2cc(/C(C)=C\c3ccccc3)ncn2)cc1
inhibition (INH) [25]: Not Active
inhibition [8]: Active
Activity [9]: 97.1%
inhibition [1]: 69%
Activity [10]: 30.37%
inhibition [11]: 23.2%
IC50 [12]: 7.26 µM
Activity [13]: 18.6%
viability at 25 µM [14]: 95.7%
Activity [15]: 7.45%
inhibition [16]: 21.6%
inhibition [5]: 9.69%
Activity [17]: 36.07%
IC50 [18]: 9.29 µM
Activity [19]: 2.79%
inhibition [20]: Active
Activity [21]: 42.9%
viability at 1 µM [22]: 98.1%
inhibition at 10 µM [4]: 71.2%
Activity [23]: 2.79%
viability at 5 µM [24]: 96.3%

C#CCOc1ccc(-c2cc(/C=C/c3ccccc3)nc(N)n2)cc1C
inhibition [1]: 62.6%
inhibition at 10 µM [2]: 13.1%
inhibition [3]: inactive
inhibition at 10 µM [4]: 11.9%

C#CCOc1cccc(-c2cc(/C(C)=C\c3ccccc3)nc(N)n2)c1
inhibition [1]: 66.3%
IC50 [12]: 8.15 µM
inhibition at 10 µM [2]: 12%
inhibition [5]: 7.03%
IC50 [18]: 8.48 µM
inhibition at 10 µM [4]: 69.7%

C#CCNc1ccccc1-c1cc(-c2ccc(OCCN3CCCCC3)cc2)nc(N)n1
IC50 [26]: 40 µM
IC50 [27]: 0.37 µM

C#CCOc1ccc(-c2cc(/C(C)=C/c3ccccc3)nc(C)n2)cc1
inhibition [1]: 60.5%
inhibition at 10 µM [2]: 10.9%
inhibition [3]: inactive
inhibition at 10 µM [4]: 15.7%

C#CCOc1ccc(-c2cc(/C=C\c3ccccc3)ncn2)cc1
inhibition (INH) [25]: Not Active
inhibition [1]: 63.4%
IC50 [12]: 10.9 µM
IC50 [18]: 7.49 µM
inhibition [3]: inactive
inhibition at 10 µM [4]: 67.5%

Oc1ccc(/C=C/c2cc(O)cc(O)c2)cc1
inhibition [16]: 54.6%

C#CCOc1ccc(-c2cc(/C=C/c3ccccc3)nc(C)n2)cc1
inhibition [1]: 62.8%
inhibition at 10 µM [2]: 10%
inhibition [5]: 8.16%
inhibition at 10 µM [4]: 20.9%

C#CCOc1ccc(-c2cc(-c3ccc(OCC#C)cc3)nc(N)n2)cc1
IC50 [26]: 1.35 µM

N#Cc1cccnc1N1CCN(c2cc(Oc3cccc4cccnc34)ncn2)CC1
IC50 [26]: 0.036 µM

C#CCOc1cccc(-c2cc(/C(C)=C/c3ccccc3)ncn2)c1
inhibition [1]: 65.7%
inhibition at 10 µM [2]: 0.87%
inhibition [3]: inactive
inhibition at 10 µM [4]: 23.4%

C#CCOc1cccc(-c2cc(/C=C/c3ccccc3)nc(-c3ccccc3)n2)c1
inhibition [1]: 69.6%
inhibition at 10 µM [2]: 0.4%
inhibition [5]: 1.5%
inhibition at 10 µM [4]: 4.89%
